Data from ChEMBL document CHEMBL4732177 (J Med Chem, 2021).
Calls of active or inactive are those of the source. Numbered stars: 1 amine (or outer) side, 2 acyl side, 3 side chain; on linkers, the order of the positions; unused ones are H or OH. Bridge positions count the residues as written; N and C are the ends. Square brackets hold non-standard residues; d marks the D form. Peptide text beside a SMILES is read from it. ξ: configuration not given here. X3 = NCCCC[C@H](N)CN([C@@H](CCCCN)C(=O)[*:2])[*:1]; NMeR = CN[C@@H](CCCNC(=N)N)C(=O)O; Pen = CC(C)(S)[C@H](N)C(=O)O; Tle = CC(C)(C)[C@H](N)C(=O)O; ξP = O=C(O)C1CCCN1

Assays:
[1] = molecular target: T1, Neurotensin receptor type 2 (Homo sapiens, UniProt O95665); experiment: Binding affinity to NTS2 (unknown origin)
[2] = Induction of hypothermia in Sprague-Dawley rat assessed as drop in body temperature at 30 microg/kg, IT measured every 10 mins upto 60 mins by thermistor probe analysis; details: in vivo, icv_or_intrathecal, 0.03 mg/kg, dose 30 µg/kg
[3] = molecular target: T2, Neurotensin receptor type 1 (Homo sapiens, UniProt P30989); experiment: Displacement of [125I]Tyr3-neurotensin from human recombinant NTS1 stably expressed in CHO cell membranes; set-up: species or system Cell membrane
Rattus norvegicus [4] = experiment: Antinociceptive activity in Sprague-Dawley rat model assessed as maximum possible effect at 150 microg/kg, IT measured every 10 mins for 60 mins by radiant heat tail-flick test relative to control; format: functional; details: dose 150 µg/kg, 1 h
Rattus norvegicus [5] = experiment: Antiallodynic activity in Sprague-Dawley rat model of complete Freund's adjuvant-induced chronic inflammatory pain assessed as increase in paw withdrawl threshold at 150 microg/kg, IT dosed on day 7 and 14 measured at 15 to 120 mins post dose relative to control; format: functional; details: dose 150 µg/kg; time 7-14 day
[6] = molecular target: T1, Neurotensin receptor type 2; experiment: Displacement of [125I]Tyr3-neurotensin from human recombinant NTS2 stably expressed in human 1321N1 cell membranes incubated for 60 mins by gamma counter analysis; set-up: species or system Cell membrane
[7] = Cardiotoxicity in Sprague-Dawley rat assessed as induction of […] at 1 mg/kg, iv measured up to 1000 seconds; format: toxicity, organism-based; details: in vivo, 0.2778 h, time 1000 sec
[8] = Cardiotoxicity in Sprague-Dawley rat assessed as decrease in mean arterial blood pressure at 0.01 to 1 mg/kg, iv measured up to 1000 seconds; format: toxicity, organism-based; details: in vivo, dose 0.01-1 mg/kg, time <=1000 sec
Rattus norvegicus [9] = experiment: Antinociceptive activity in Sprague-Dawley rat model assessed as maximum possible effect at 10 microg/kg, IT measured every 10 mins for 60 mins by radiant heat tail-flick test relative to control; format: functional; details: dose 10 µg/kg, 1 h
[10] = Stability of compound in rat plasma assessed as half life at 1 mM incubated for 1 to 20 mins by UPLC-MS analysis; format: ADME, cell-free; details: time 1-20 min
Rattus norvegicus [11] = experiment: Antinociceptive activity in Sprague-Dawley rat model assessed as effective dose administered intrathecally and measured every 10 mins for 60 mins by radiant heat tail-flick test; format: functional; details: central, 1 h
Rattus norvegicus [12] = experiment: Antinociceptive activity in Sprague-Dawley rat model assessed as effective dose administered intrathecally and co-treated with opioid antagonist naloxone and measured every 10 mins for 60 mins by radiant heat tail-flick test; format: functional, organism-based
[13] = Induction of hypothermia in Sprague-Dawley rat assessed as reduction in body temperature at 150 microg/kg, IT measured every 10 mins upto 60 mins by thermistor probe analysis; details: in vivo, icv_or_intrathecal, 0.15 mg/kg, dose 150 µg/kg
Rattus norvegicus [14] = experiment: Antinociceptive activity in Sprague-Dawley rat model of formalin-induced nociception pain assessed as reduction in pain behaviour by measuring less lifting of formalin injected hind paw during acute phase at 30 to 150 microg/kg, IT measured for 9 mins; format: functional, organism-based; details: dose 30-150 µg/kg
[15] = Stability of compound in rat CSF assessed as half life at 1 mM incubated for 24 hrs by UPLC-MS analysis; format: ADME, tissue-based, Cerebrospinal fluid
Rattus norvegicus [16] = experiment: Antinociceptive activity in Sprague-Dawley rat model assessed as maximum possible effect at 90 microg/kg, IT measured every 10 mins for 60 mins by radiant heat tail-flick test relative to control; format: functional; details: dose 90 µg/kg, 1 h
Ileum [17] = experiment: Myorelaxant activity in Sprague-Dawley rat ileum assessed as reduction in carbachol-induced contractions at 10 ^-11 to 10^-5 M by force transducer relaxation assay; format: tissue-based; details: dose lower 1e-05 µM, dose upper 10 µM
[18] = molecular target: T2, Neurotensin receptor type 1; experiment: Displacement of [125I]Tyr3-neurotensin from human recombinant NTS1 stably expressed in CHO-K1 cell membranes incubated for 60 mins by gamma counter analysis; set-up: species or system Cell membrane
Rattus norvegicus [19] = experiment: Antinociceptive activity in Sprague-Dawley rat model assessed as increased in tail withdrawal latency administered intrathecally measured every 10 mins for 60 mins by radiant heat tail-flick test; format: functional, organism-based; details: dose 10-150 µg/kg
Rattus norvegicus [20] = experiment: Antinociceptive activity in Sprague-Dawley rat model of formalin-induced nociception pain assessed as reduction in pain behaviour by measuring less lifting of formalin injected hind paw during inflammatory phase at 30 to 150 microg/kg, IT; format: functional, organism-based; details: dose 30-150 µg/kg, time 21-60 min
Rattus norvegicus [21] = experiment: Antinociceptive activity in Sprague-Dawley rat model assessed as maximum efficacy causing increase in tail withdrawal latency administered intrathecally measured every 10 mins for 60 mins by radiant heat tail-flick test; format: functional; details: 1 h
Rattus norvegicus [22] = experiment: Antinociceptive activity in Sprague-Dawley rat model assessed as maximum possible effect at 30 microg/kg, IT measured every 10 mins for 60 mins by radiant heat tail-flick test relative to control; format: functional; details: dose 30 µg/kg, 1 h
[23] = Cardiotoxicity in Sprague-Dawley rat assessed as decrease in mean arterial blood pressure at 0.1 mg/kg, iv measured up to 1000 seconds; format: toxicity, organism-based; details: in vivo, time <=1000 sec
Rattus norvegicus [24] = experiment: Antinociceptive activity in Sprague-Dawley rat model assessed as maximum possible effect at 60 microg/kg, IT measured every 10 mins for 60 mins by radiant heat tail-flick test relative to control; format: functional; details: dose 60 µg/kg, 1 h
Ileum [25] = experiment: Myorelaxant activity in Sprague-Dawley rat ileum assessed as reduction in carbachol-induced contractions by force transducer relaxation assay; format: functional, tissue-based
Rattus norvegicus [26] = experiment: Antinociceptive activity in Sprague-Dawley rat model assessed as maximum possible effect at 10 mg/kg, sc measured every 10 mins for 60 mins by radiant heat tail-flick test relative to control; format: functional; details: 1 h
Rattus norvegicus [27] = species on record: Rattus norvegicus; experiment: animal or person; details: Sprague-Dawley, sc, 1 h
Description: Antinociceptive activity in Sprague-Dawley rat model assessed as effective dose administered subcutaneously and measured every 10 mins for 60 mins by radiant heat tail-flick test

Rattus norvegicus [28] = experiment: Antinociceptive activity in Sprague-Dawley rat model administered subcutaneously and measured every 10 mins for 60 mins by radiant heat tail-flick test; format: functional, organism-based; details: dose 1-10 mg/kg
[29] = Toxicity in Sprague-Dawley rat assessed as induction of hyperactivity at 1 microg/kg, IT; details: in vivo, icv_or_intrathecal, 0.001 mg/kg, dose 1 µg/kg
[30] = Toxicity in Sprague-Dawley rat assessed as induction of abnormal gait at 1 microg/kg, IT; details: in vivo, icv_or_intrathecal, 0.001 mg/kg, dose 1 µg/kg
[31] = Toxicity in Sprague-Dawley rat assessed as induction of tremor at 1 microg/kg, IT; details: in vivo, icv_or_intrathecal, 0.001 mg/kg, dose 1 µg/kg
[32] = Toxicity in Sprague-Dawley rat assessed as induction of dizziness at 1 microg/kg, IT; details: in vivo, icv_or_intrathecal, 0.001 mg/kg, dose 1 µg/kg
Rattus norvegicus [33] = experiment: Antinociceptive activity in Sprague-Dawley rat model of formalin-induced nociception pain assessed as reduction in pain behaviour by measuring less lifting of formalin injected hind paw during inflammatory phase at 1 microg/kg, IT; format: functional, organism-based; details: dose 1.0 µg/kg
Rattus norvegicus [34] = experiment: Antinociceptive activity in Sprague-Dawley rat model of formalin-induced nociception pain assessed as reduction in pain behaviour by measuring less lifting of formalin injected hind paw during acute phase at 1 microg/kg, IT measured for 9 mins; format: functional, organism-based; details: dose 1.0 µg/kg
[35] = Toxicity in Sprague-Dawley rat assessed as induction of drowsiness at 1 microg/kg, IT; details: in vivo, icv_or_intrathecal, 0.001 mg/kg, dose 1 µg/kg
[36] = Toxicity in Sprague-Dawley rat assessed as induction of ataxia at 1 microg/kg, IT; details: in vivo, icv_or_intrathecal, 0.001 mg/kg, dose 1 µg/kg
[37] = molecular target: T2, Neurotensin receptor type 1; experiment: Displacement of [3H]-neurotensin from NTS1 in human HT-29 cell membrane incubated for 20 mins by liquid scintillation counter analysis; format: cell membranes
[38] = molecular target: Neurotensin receptor type 1 (Mus musculus, UniProt O88319); experiment: Displacement of [3H]-neurotensin from NTS1 in mouse brain membrane incubated for 30 mins by liquid scintillation counter analysis; format: cell membranes
Neurotensin receptor type 1 (Mus musculus, UniProt O88319), sequence (O88319 whole entry): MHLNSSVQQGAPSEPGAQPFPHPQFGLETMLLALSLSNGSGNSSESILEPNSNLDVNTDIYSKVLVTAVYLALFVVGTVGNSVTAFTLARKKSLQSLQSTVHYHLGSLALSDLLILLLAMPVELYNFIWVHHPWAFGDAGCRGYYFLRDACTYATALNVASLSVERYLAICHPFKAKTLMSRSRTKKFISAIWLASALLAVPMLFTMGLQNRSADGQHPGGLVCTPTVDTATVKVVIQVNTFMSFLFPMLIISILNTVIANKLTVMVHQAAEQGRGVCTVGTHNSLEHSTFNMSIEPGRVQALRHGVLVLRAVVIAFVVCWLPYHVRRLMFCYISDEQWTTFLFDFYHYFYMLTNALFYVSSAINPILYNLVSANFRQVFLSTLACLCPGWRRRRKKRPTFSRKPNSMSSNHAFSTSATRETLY

T2 sequence (P30989 whole entry): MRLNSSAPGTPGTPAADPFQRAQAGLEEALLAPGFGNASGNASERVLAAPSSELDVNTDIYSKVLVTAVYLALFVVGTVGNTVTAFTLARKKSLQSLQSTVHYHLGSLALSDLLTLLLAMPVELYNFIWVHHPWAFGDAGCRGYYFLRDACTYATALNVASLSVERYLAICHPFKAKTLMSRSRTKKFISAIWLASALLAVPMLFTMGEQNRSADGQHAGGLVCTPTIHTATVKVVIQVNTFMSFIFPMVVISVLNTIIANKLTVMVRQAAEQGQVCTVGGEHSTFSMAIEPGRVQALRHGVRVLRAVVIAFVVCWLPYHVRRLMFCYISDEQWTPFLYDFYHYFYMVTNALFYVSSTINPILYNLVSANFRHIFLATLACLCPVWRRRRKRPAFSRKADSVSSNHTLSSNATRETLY
T1 sequence (O95665 whole entry): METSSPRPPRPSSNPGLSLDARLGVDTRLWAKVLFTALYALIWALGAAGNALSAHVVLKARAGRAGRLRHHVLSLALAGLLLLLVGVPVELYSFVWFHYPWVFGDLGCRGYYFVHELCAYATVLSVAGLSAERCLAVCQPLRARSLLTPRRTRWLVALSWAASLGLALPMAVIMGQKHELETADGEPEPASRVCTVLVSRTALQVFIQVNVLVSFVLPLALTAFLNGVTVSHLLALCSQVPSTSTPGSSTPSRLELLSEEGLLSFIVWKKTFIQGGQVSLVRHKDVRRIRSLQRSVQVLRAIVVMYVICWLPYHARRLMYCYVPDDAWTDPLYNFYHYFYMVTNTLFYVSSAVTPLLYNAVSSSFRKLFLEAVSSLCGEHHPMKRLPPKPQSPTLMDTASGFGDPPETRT

CC[C@H](C)[C@H](NC(=O)[C@@H]1Cc2ccc(O)c(c2)C/C=C/CCCCCCC(=O)N[C@@H](CCCCN)C(=O)N2CCC[C@H]2C(=O)N1)C(=O)N[C@@H](CC(C)C)C(=O)O
Ki [1]: > 1 nM

CCOC(=O)[C@H](CC(C)C)NC(=O)[C@@H](NC(=O)[C@H](Cc1c[nH]c2ccccc12)NC(=O)[C@@H]1CCCN1C(=O)[C@H](CCCCN)NC[C@@H](N)CCCCN)C(C)(C)C (H-[X3]PW[Tle]L-OEt)
deltaT [2]: 3 °C

CC[C@H](C)[C@H](NC(=O)[C@@H]1Cc2ccc(cc2)OCCCCCC(=O)N[C@H](CCCNC(=N)N)C(=O)N2CCC[C@H]2C(=O)N1)C(=O)N[C@@H](CC(C)C)C(=O)O
Ki [3]: 450 nM

CC(C)C[C@H](NC(=O)[C@H](Cc1ccc(O)cc1)NC(=O)[C@@H]1C/C=C\C[C@H](N)C(=O)N[C@@H](CCCCN)C(=O)N[C@@H](CCCCN)C(=O)N1)C(=O)O
MPE (Rattus norvegicus [4]): 98.5% | Activity (Rattus norvegicus [5]): <=45% | Ki [6]: 50 nM | Activity [7]: Toxic | Activity [8]: Non-Toxic | MPE (Rattus norvegicus [9]): 13.1% | half-life at 1000 µM [10]: 15 min | ED50 (Rattus norvegicus [11]): 0.0438 mg/kg | Activity (Rattus norvegicus [12]): Active | Activity [13]: Non-Toxic | Activity (Rattus norvegicus [14]): Active | half-life at 1000 µM [15]: > 1440 min | MPE (Rattus norvegicus [16]): 98.6% | Activity (Ileum [17]): Non-Toxic | Ki [18]: > 100000 nM | Activity (Rattus norvegicus [19]): Dose-dependent effect | Activity (Rattus norvegicus [20]): Active | Emax (Rattus norvegicus [21]): 90 µg/kg | MPE (Rattus norvegicus [22]): 32.5% | Activity [23]: Non-Toxic | MPE (Rattus norvegicus [24]): 73.1%

CC[C@H](C)[C@H](NC(=O)[C@H](Cc1ccc(O)cc1)NC(=O)[C@@H]1CCCN1C(=O)[C@H](CCCNC(=N)N)NC(=O)[C@@H](N)CCCNC(=N)N)C(=O)N[C@@H](CC(C)C)C(=O)O
half-life at 1000 µM [10]: 1.6 min | half-life at 1000 µM [15]: 894 min | Activity (Ileum [25]): Dose-dependent effect | EC50 (Ileum [25]): 3.9 nM | Activity [23]: <= 50 mmHg

CN1CC[C@]23c4c5ccc(O)c4O[C@H]2[C@@H](O)C=C[C@H]3[C@H]1C5 [MORPHINE]
MPE (Rattus norvegicus [26]): 83.3% | ED50 (Rattus norvegicus [27]): 3.6 mg/kg | Activity (Rattus norvegicus [28]): Dose-dependent effect

CC[C@H](C)[C@H](NC(=O)[C@@H]1Cc2ccc(O)c(c2)C/C=C/CNCCC[C@H](N)C(=O)N[C@@H](CCCCN)C(=O)N2CCC[C@H]2C(=O)N1)C(=O)N[C@@H](CC(C)C)C(=O)O
MPE (Rattus norvegicus [4]): 50% | Ki [1]: 4.5 nM

CC[C@H](C)[C@H](NC(=O)[C@@H]1Cc2ccc(O)c(c2)C/C=C/CCCCCC[C@H](N)C(=O)N[C@@H](CCCCN)C(=O)N2CCC[C@H]2C(=O)N1)C(=O)N[C@@H](CC(C)C)C(=O)O
Ki [1]: 24 nM

CSCC[C@@H]1NC(=O)[C@H](CC(C)C)NC(=O)[C@H](CCCNC(=N)N)NC(=O)[C@H](CO)NC(=O)[C@@H]2CSSC[C@@H]3NC(=O)[C@H](CO)NC(=O)CNC(=O)[C@H]([C@@H](C)O)NC(=O)[C@H](CSSC[C@H](N)C(=O)N[C@@H](CCCCN)C(=O)NCC(=O)N[C@@H](CCCCN)C(=O)NCC(=O)N[C@@H](C)C(=O)N[C@@H](CCCCN)C(=O)N2)NC(=O)[C@H](CSSC[C@@H](C(N)=O)NC(=O)[C@H](CCCCN)NC(=O)CNC(=O)[C@H](CO)NC(=O)[C@H](CCCNC(=N)N)NC3=O)NC(=O)[C@H](CC(=O)O)NC(=O)[C@H](Cc2ccc(O)cc2)NC1=O [ZICONOTIDE]
Activity [29]: Toxic | Activity [30]: Toxic | Activity [31]: Toxic | Activity [32]: Toxic | Activity (Rattus norvegicus [33]): Active | Activity (Rattus norvegicus [34]): Active | Activity [35]: Toxic | Activity [36]: Toxic

CC(C)C[C@H](NC(=O)[C@@H]1CCC(=O)NCC(=O)N(C)[C@@H](CCCNC(=N)N)C(=O)N[C@@H](CCCCN)C(=O)N2CCCC2C(=O)N[C@@H](Cc2c[nH]c3ccccc23)C(=O)N1)C(=O)O (some centres not stated) (G[NMeR]K[ξP]WEL-OH; lactam N-6)
Ki [37]: 3500 nM

CC[C@H](C)[C@H](NC(=O)[C@@H]1Cc2ccc(O)c(c2)C/C=C/CNCCCC[C@H](N)C(=O)N[C@@H](CCCCN)C(=O)N2CCC[C@H]2C(=O)N1)C(=O)N[C@@H](CC(C)C)C(=O)O
Ki [1]: 11000 nM

CN[C@@H](CCCNC(=N)N)C(=O)N[C@H]1CSSC(C)(C)[C@@H](C(=O)N[C@@H](CC(C)C)C(=O)O)NC(=O)[C@H](Cc2c[nH]c3ccccc23)NC(=O)[C@@H]2CCCN2C1=O (H-[NMeR]CPW[Pen]L-OH; disulfide 2-5)
Ki [38]: 83 nM

CC(C)C[C@@H]1NC(=O)[C@H](C(C)(C)C)NC(=O)[C@H](Cc2c[nH]c3ccccc23)NC(=O)[C@@H]2CCCN2C(=O)[C@H](CCCCN)NC(=O)[C@H](CCCNC(=N)N)NC1=O (cyclo(KPW[Tle]LR))
Ki [38]: 410 nM
